Drawing on ChEMBL document CHEMBL3526087, “Inhibition of human sterol Δ7-reductase and other postlanosterol enzymes by LK-980, a novel inhibitor of cholesterol synthesis” (Drug Metab Dispos, 2011), this text covers Activity for two molecules.

In data set [1] the target is T1, 3-hydroxy-3-methylglutaryl-coenzyme A reductase (Homo sapiens) (UniProt P04035).
T1 sequence (whole entry): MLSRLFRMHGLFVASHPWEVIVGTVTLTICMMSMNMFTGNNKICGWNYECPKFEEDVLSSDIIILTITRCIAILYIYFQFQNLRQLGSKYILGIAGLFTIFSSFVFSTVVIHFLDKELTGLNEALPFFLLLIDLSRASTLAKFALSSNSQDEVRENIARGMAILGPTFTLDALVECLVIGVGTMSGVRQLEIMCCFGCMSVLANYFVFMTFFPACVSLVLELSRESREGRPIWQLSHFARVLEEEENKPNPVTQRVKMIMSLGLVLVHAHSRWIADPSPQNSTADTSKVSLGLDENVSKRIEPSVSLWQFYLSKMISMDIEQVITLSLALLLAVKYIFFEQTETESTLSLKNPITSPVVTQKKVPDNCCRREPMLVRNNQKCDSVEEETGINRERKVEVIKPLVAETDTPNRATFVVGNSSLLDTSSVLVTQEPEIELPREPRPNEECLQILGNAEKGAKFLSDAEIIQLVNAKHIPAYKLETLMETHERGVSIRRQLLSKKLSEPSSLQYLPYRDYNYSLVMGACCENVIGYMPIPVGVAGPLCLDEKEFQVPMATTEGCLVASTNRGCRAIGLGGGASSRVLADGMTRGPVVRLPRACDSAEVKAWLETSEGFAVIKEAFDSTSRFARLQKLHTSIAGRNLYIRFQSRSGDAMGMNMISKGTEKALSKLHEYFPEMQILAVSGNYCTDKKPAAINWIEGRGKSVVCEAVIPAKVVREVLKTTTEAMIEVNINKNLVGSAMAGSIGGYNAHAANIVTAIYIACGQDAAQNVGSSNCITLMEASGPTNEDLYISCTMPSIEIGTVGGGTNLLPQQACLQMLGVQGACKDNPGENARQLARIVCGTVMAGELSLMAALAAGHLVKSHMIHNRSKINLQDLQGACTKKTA
Nature of the data set: Inhibition of HMGCR activity in human hepatocytes assessed as increase in FF-MAS level per gram of protein by GC-MS analysis (reference value: 0.7 ug). It is filed as cell-based. As to conditions: Hepatocyte.

For data set [2], the target named is T1, 3-hydroxy-3-methylglutaryl-coenzyme A reductase (Homo sapiens). Kind of data set: Inhibition of HMGCR activity in human hepatocytes assessed as increase in desmosterol level per gram of protein by GC-MS analysis (reference value: 5.5 ug). It is filed as cell-based. As to conditions: Hepatocyte.
Data set [3] shares this target. Nature of the data set: Inhibition of HMGCR activity in human hepatocytes assessed as increase in lathosterol level per gram of protein by GC-MS analysis (reference value: 47.7 ug). It counts as cell-based. As to conditions: Hepatocyte.
For data set [4] the target is unchanged. Kind of data set: Inhibition of HMGCR activity in human hepatocytes assessed as increase in 7-dehydrocholesterol level per gram of protein by GC-MS analysis (reference value: 16.3 ug). It is filed as cell-based. As to conditions: Hepatocyte.
Another data set has as its target Cytochrome P450 3A4 (Homo sapiens, UniProt P08684). Kind of data set: Effect on CYP3A4 in human hepatocytes assessed as nifedipine oxidation activity using nifedipine as substrate at 10 uM. It is filed as ADME, cell-based, Hepatocyte.
The next data set deals with Hepatocyte. Nature of the data set: Effect on CYP3A4 mRNA expression in human hepatocytes at 10 uM after 12 to 48 hrs by RT-PCR analysis. It counts as ADME, cell-based.
In data set [5] the target is T2, Delta(14)-sterol reductase TM7SF2 (Homo sapiens) (UniProt O76062).
T2 sequence (whole entry): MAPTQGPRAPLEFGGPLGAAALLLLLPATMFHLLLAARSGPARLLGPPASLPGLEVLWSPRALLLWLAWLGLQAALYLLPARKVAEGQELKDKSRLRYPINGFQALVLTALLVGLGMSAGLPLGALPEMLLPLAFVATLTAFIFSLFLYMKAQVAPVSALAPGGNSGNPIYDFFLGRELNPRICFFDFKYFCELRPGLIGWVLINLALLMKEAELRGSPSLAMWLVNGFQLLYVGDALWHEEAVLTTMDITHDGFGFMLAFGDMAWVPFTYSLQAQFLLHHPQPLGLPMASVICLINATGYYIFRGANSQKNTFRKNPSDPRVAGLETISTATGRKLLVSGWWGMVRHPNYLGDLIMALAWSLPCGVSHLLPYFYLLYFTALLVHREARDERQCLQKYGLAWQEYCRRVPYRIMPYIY
Kind of data set: Inhibition of DHCR14 activity in human hepatocytes assessed as increase in FF-MAS level per gram of protein by GC-MS analysis (reference value: 0.7 ug). It counts as cell-based. As to conditions: Hepatocyte.

The target of data set [6] is T3, Delta(24)-sterol reductase (Homo sapiens) (UniProt Q15392).
T3 sequence (whole entry): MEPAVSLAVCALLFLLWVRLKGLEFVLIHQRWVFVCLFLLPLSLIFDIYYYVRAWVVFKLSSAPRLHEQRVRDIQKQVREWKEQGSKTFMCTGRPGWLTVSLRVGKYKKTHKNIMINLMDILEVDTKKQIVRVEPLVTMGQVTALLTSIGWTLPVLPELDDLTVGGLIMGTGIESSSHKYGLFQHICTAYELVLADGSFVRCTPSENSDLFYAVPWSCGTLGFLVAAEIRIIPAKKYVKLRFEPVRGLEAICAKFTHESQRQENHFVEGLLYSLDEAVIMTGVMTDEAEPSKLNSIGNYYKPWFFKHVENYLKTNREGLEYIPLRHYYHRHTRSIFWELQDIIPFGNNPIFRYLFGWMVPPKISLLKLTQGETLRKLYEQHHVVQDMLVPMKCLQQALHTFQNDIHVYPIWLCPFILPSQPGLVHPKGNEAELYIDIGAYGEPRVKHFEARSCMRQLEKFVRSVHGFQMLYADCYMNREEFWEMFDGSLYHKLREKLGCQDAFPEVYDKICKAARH
Kind of data set: Inhibition of DHCR24 activity in human hepatocytes assessed as increase in desmosterol level per gram of protein by GC-MS analysis (reference value: 5.5 ug). It counts as cell-based. As to conditions: Hepatocyte.

In data set [7] the target is T4, Lathosterol oxidase (Homo sapiens) (UniProt O75845).
T4 sequence (whole entry): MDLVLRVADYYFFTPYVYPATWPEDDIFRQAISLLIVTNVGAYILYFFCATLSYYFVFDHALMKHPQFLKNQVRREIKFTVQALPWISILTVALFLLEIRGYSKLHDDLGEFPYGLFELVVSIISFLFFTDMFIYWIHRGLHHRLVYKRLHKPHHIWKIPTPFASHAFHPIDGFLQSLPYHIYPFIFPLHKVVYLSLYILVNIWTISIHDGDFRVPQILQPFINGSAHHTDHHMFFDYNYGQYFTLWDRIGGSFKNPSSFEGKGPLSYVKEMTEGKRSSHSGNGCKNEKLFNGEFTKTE
Nature of the data set: Inhibition of SC5DL activity in human hepatocytes assessed as increase in lathosterol level per gram of protein by GC-MS analysis (reference value: 47.7 ug). It is filed as cell-based. As to conditions: Hepatocyte.

Data set [8] deals with T5, 7-dehydrocholesterol reductase (Homo sapiens) (UniProt Q9UBM7).
T5 sequence (whole entry): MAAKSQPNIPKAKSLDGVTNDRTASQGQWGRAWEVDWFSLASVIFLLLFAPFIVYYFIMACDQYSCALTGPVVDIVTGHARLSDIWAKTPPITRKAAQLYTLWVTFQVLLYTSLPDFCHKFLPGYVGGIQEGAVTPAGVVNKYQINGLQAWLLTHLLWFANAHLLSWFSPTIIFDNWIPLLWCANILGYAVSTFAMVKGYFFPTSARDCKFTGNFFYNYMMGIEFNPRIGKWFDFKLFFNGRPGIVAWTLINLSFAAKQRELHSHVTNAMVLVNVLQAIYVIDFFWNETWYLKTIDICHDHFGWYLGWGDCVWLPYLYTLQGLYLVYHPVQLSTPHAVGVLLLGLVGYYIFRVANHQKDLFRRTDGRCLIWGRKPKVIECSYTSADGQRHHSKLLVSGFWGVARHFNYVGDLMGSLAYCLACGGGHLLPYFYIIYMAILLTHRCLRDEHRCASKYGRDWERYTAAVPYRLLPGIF
Kind of data set: Inhibition of DHCR7 activity in human hepatocytes assessed as increase in 7-dehydrocholesterol level per gram of protein by GC-MS analysis (reference value: 16.3 ug). It is filed as cell-based. As to conditions: Hepatocyte.

The target in data set [9] is T1, 3-hydroxy-3-methylglutaryl-coenzyme A reductase (Homo sapiens). Kind of data set: Inhibition of HMGCR activity in human hepatocytes assessed as mevalonate formed per mg of protein at 100 uM by GC-MS analysis (reference value: 69 9 pmol/min). It is filed as cell-based. As to conditions: Hepatocyte.

The structures appear in SMILES notation.

Cytochrome P450 3A4, sequence (P08684 whole entry): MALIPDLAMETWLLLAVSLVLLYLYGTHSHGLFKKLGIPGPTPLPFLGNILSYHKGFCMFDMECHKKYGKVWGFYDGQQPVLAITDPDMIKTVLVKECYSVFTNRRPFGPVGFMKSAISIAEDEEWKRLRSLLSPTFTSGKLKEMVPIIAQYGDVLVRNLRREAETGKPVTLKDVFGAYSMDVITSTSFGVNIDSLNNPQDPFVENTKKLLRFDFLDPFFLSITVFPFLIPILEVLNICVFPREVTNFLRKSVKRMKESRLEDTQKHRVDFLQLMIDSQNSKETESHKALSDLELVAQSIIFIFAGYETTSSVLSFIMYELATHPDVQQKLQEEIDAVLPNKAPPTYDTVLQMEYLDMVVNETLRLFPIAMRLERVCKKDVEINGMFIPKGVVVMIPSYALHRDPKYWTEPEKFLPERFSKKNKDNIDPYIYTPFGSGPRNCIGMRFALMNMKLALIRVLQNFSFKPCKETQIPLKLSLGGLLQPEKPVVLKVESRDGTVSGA

On to `CC(C)c1c(C(=O)Nc2ccccc2)c(-c2ccccc2)c(-c2ccc(F)cc2)n1CC[C@@H](O)C[C@@H](O)CC(=O)O`, for which the Activity in [1] amounted to 0.3 µg; in data set [2], 2.7 µg; in data set [3], 25.8 µg; in [4] it was 15.8 µg.
Consider `OC(CN1CCN(CCc2ccccc2)CC1)c1cccnc1` (stereo unspecified), for which the Activity entry was “Non-toxic” on Cytochrome P450 3A4; “Non-toxic” in the data set on Hepatocyte; 2.9 µg in [5]; 10.1 µg in data set [6]; 119 µg in data set [7]; 556 µg in data set [8]. Moreover, the Activity in [9] is 76 pmol/min.
